In patent publication US8722923B2, “Conjugates for treating neurodegenerative diseases and disorders” (Ramot at Tel-Aviv University Ltd., priority 2008, dated 2014):
Entries after “also recorded” stand apart in the source; their conditions may differ. Where a name gives a salt, the structure may show the parent alone. Each block holds one molecule with its values, some of them ahead of it.

Columns and labels:
[1] = Hygroscopicity of acid addition salts; assay type: physicochemical; settings: acid addition salts as isolated
Excerpt: The hydrochloride salts of Compounds 6, 8a, 11, 13, 14, 16, 18 and 21 were identified as hygroscopic. […] The basis for this assumption was that the addition salt of an aromatic acid would be less hygroscopic than that of the corresponding hydrochloric acid addition salt. Thus, the butyl ester, Compound 20 was Boc-deprotected with 3 equivalents of benzenesulfonic acid in […].

[2] = test system: MPTP sub-acute model mice; assay: Experiment 2: observed vitality signs (level of motion, fur appearance), MPTP sub-acute model; assay type: in vivo, C57/BL/6J mice; for Fur, observer 1: key: Split fur +; Shiny fur +++; for Fur, observer 2: key: Split fur +; Shiny fur +++; for Fur, observer 3: key: Split fur +; Shiny fur +++; for Fur, observer 4: key: Split fur +; Shiny fur +++; for Vitality, observer 1: key: slow motions +; normal motion +++; for Vitality, observer 2: key: slow motions +; normal motion +++; for Vitality, observer 3: key: slow motions +; normal motion +++; for Vitality, observer 4: key: slow motions +; normal motion +++
Excerpt: FIG. […] 6 hereinabove. Six independent observers estimated the level of mice vitality by the level of motion of the mice (light purple, marked vitality) and fur appearance (dark purple). The results are an average of the observers' reports.

[3] = test system: MPTP acute model mice; assay: Experiment 1: open field test, MPTP acute model (AN-490); assay type: in vivo, C57/BL/6J mice; settings: for motility / motor activity in open field: MPTP treated mice, L-DOPA 25 mg/kg or AN-490 67.5 mg/kg by oral gavage, days 3, 6, 8, 16
Experimental: The MPTP neurotoxin was administered on day 0, with 4 IP injections (each injection contained 20 mg/kg, 5 ml/kg) in saline. The various treatments or saline were administered on days 0, 1, 2, 3, 6, 7, 13 and 16. Each group of mice (n=6) was subjected, on days 3, 6, 8 and 16, to the open field test, and the following parameters were scored: the distance moved (FIGS. 2A and 2B), velocity (FIGS. 2C and 2D), time spent immobile (FIGS. 2E and 2F) and time spent in a high level of mobility (FIGS. 2G and 2H; strong mobility) during a period of 20 minutes. FIGS. 2A, 2C, 2E and 2G present the data obtained for the control mice, mice treated with L-DOPA and mice treated with AN-490. FIGS. 2B, 2D, 2F and 2H present the data obtained for control mice or mice treated with MPTP, MPTP with L-DOPA and MPTP with AN-490.
Acute model: On day 1, C57/BL mice received 4× […] injections of 20 mg/kg MPTP-HCl (Sigma), dissolved in saline solution, at 2 hours intervals.
The open field test measures behavioral responses, locomotor activity, hyperactivity, and exploratory behaviors. Open field test is also used as a measure of anxiety. Mice tend to avoid brightly illuminated, novel, open spaces, so the open field environment acts as an anxiogenic stimulus and allows for measurement of anxiety-induced locomotor activity and exploratory behaviors. The apparatus for the open field test is a square (0.5×0.5 meter) made of white melamine. All activities were recorded by a video camera mounted above the open field and scored in real-time by a motion-recognition software package (Noldus, Holland) that detects and analyzes the movements of the animals. The video image of the open field arena was partitioned into equal-size squares zone. Total distance, average speed, rearing/elongation behavior, and time spent in various parts of the field (e.g. the border areas vs. mid-area) were measured. Testing was carried out in a temperature, noise and light controlled room.

[4] = test system: MPTP sub-acute model mice; assay: Experiment 2: tyrosine hydroxylase immunostaining of striatum and substantia nigra, MPTP sub-acute model; assay type: in vivo, C57/BL/6J mice; settings: GABA 18.4 mg/kg, L-DOPA 30 mg/kg + GABA 18.4 mg/kg, AN-490 81 mg/kg per os, days 29-30
Experimental: Shown are microphotograph of the striatum and substantia-nigra of mice receiving saline (FIG. 8A, Naive), MPTP+saline (FIG. 8B, MPTP) MPTP+GABA.HCl 18.4 mg/kg (FIG. 8C, MPTP+GABA), MPTP+L-DOPA 30 mg/kg (FIG. 8D, MPTP+DOPA), MPTP+L-DOPA 30 mg/kg+GABA 18.4 mg/kg (FIG. 8E, MPTP+Dopa+GABA) and MPTP+AN-490 81 mg/kg (FIG. 8F, MPTP+AN490). Paraffin-embedded horizontal sections of the stratium and substantia nigra were stained with hematoxylan and Tyrosine Hyroxylase antibodies. The magnification is ×100 and in the insert ×200.
Animals under deep anesthesia were perfused through the aorta with phosphate-buffered saline (PBS), followed by a cold fixative consisting of 4% paraformaldehyde, 0.35% glutaraldehyde and 0.2% picric acid in phosphate buffer. After perfusion, the brain were removed and fixed in 4% paraformaldehyde for 24 hours, washed with PBS, dehydrated in increasing alcohol concentrations and embedded in paraffin. Paraffin-embedded tissues were processed as described [Rephaeli et al. Int J Cancer. 2005 Aug. 20; 116:226-35]. The avidin-biotin nonspecific binding was prevented by a blocking kit according to the manufacturer's protocol (Vector, USA). The sections were further incubated at 4° C. overnight with the primary antibody mouse monoclonal tyrosine hydroxylase (Visionbiosystem, Newcastle, UK, diluted 1:50). The secondary antibody was biotin conjugated goat anti-mouse IgG (Santa Cruz). Slides were then stained with ABC peroxidase system, developed with diaminobenzidine (DAB), chromogene substrate (Vector Laboratories, Inc. The slides were examined using an Olympus BX52 light microscope and images were taken with Olympus DP50 digital camera system. Images were analyzed by the ImagePro Plus 5.1 software. At least 12 different fields in each experimental group were analyzed. The Mean density±SEM was calculated for the striatum and the mean cell number±SEM was calculated for the SN.

[5] = test system: MPTP acute model mice; assay: Experiment 3: tyrosine hydroxylase immunohistochemistry of striatum and substantia nigra, MPTP acute model; assay type: in vivo, C57/BL/6J mice; settings: overall conclusion
Experimental: FIG. 13 presents a bar graph showing the effect of BL-1023* administration on the neuronal density in the stratium, as assessed from Tyrosine Hydroxylase staining. Mice were administered the following treatments: saline (control), MPTP+saline (MPTP), MPTP+L-DOPA 30 mg/kg (MPTP+L-DOPA), MPTP+L-DOPA 30 mg/kg+GABA 18.4 mg/kg (MPTP+L-DOPA+GABA), MPTP+BL1023* 48.4 mg/kg (denoted MPTP+1023 30) and MPTP+BL-1023* 24.2 mg/kg (denoted MPTP+BL1023 15). The MPTP neurotoxin was administered on day 0, with 4 IP injections (each injection contained 20 mg/kg, 5 ml/kg) in saline. The various treatments or saline were administered on day 7, 9, 11 and 13 (total of 4 treatments). Three mice, from each treatment group, and four mice from the control group, were sacrificed on day 15 and subjected to immunohystochemistry for tyrosine hydroxylase of the stratium according to the protocol described in the Examples section hereinbelow. The intensity of Tyrosine Hyroxylase (TH) staining, in the striatum of the treated mice is presented as the average of Intensity Optical Density (IOD) and SE obtained for the total stained area.
FIG. 15 presents a bar graph showing the effect of BL-1023* administration on the neuronal density in the substantia nigra, as assessed from Tyrosine Hydroxylase staining. […]

[6] = compared with other esters such as the ethyl or octyl esters; cited from earlier work
[7] = MPTP sub-acute model, per os treatment
[8] = listed as Compound 21, tri-hydrochloride
[9] = MPTP+AN-490 67.5 mg/kg, compared to the other tested groups

Molecule: CCCCOC(=O)C(Cc1ccc(O)c(O)c1)NC(=O)CCCN (stereo not shown) (as salt: hydrochloride) [BL-1023*, Butyl-2-(4-Aminobutanamide)-3-(3,4-dihydroxyphenyl)propanoate hydrochloride]
melting point: 77 °C

Molecule: CCCCOC(=O)[C@@H](N)Cc1ccc(OC(=O)CCCN)c(OC(=O)CCCN)c1 [AN-490, Butyl-2-amino-3-(3,4-phenyl-di[4-aminobutanoate])propanoate tri-hydrochloride]
hygroscopicity [1]: hygroscopic
Fur, observer 1 [2, 7]: +
Fur, observer 2 [2, 7]: +
Vitality, observer 1 [2, 7]: +++
Vitality, observer 2 [2, 7]: +++
Vitality, observer 3 [2, 7]: +++
Vitality, observer 4 [2, 7]: +++
vitality signs (fur appearance) ([2]; MPTP+AN-490 81 mg/kg per os): reduced vitality signs
motility / motor activity in open field [3, 8]: significant increase in motility
motility / motor activity in open field ([3]; tri-hydrochloride): continuous increase in motor activity
strong mobility in open field [3, 9]: highly mobile
time spent immobile in open field [3, 9]: immobile for a short time
velocity in open field [3, 9]: highest velocity
TH staining in the substantia nigra and striatum (IHC) [4, 8]: enhanced neuronal density
TH staining in the substantia nigra and striatum (IHC) ([4]; tri-hydrochloride): protection or restoration of the normal morphology; also recorded: TH protective activity

Molecule: COC(=O)[C@@H](N)Cc1ccc(O)c(O)c1.Cl [Compound 6, L-DOPA methyl ester hydrochloride]
hygroscopicity [1]: hygroscopic

Molecule: CCCCOC(=O)[C@@H](N)Cc1ccc(O)c(O)c1 [L-DOPA butyl ester]
skin permeability [6]: better skin permeability

Molecule: CCCCOC(=O)[C@@H](N)Cc1ccc(OC(=O)CCCN)c(OC(=O)CCCN)c1 (as salt: hydrochloride) [AN-490, Butyl-2-amino-3-(3,4-phenyl-di[4-aminobutanoate])propanoate tri-hydrochloride]
melting point: 175 to 176 °C

Molecule: Butyl-2-amino-3-(3,4-phenyl-di[4-aminobutanoate])propanoate tri-benzenesulfonate salt [Compound 22]
hygroscopicity [1]: much less hygroscopic

The next lines start with results.

Fur, observer 1 [2, 7]: +++
Fur, observer 3 [2, 7]: +++
Fur, observer 4 [2, 7]: +++
Vitality, observer 1 [2, 7]: +++
Vitality, observer 2 [2, 7]: +++
Vitality, observer 3 [2, 7]: +++
Vitality, observer 4 [2, 7]: +++
Molecule: NCCCC(=O)O [GABA, 4-amino-butyric acid]
protection of TH positive cells [5]: protect the TH positive cells
TH staining in the substantia nigra and striatum (IHC) [4]: protection or restoration of the normal morphology

melting point: 185 °C
hygroscopicity [1]: hygroscopic
Molecule: COC(=O)C(N)Cc1ccc(OC(=O)CCCN)c(OC(=O)CCCN)c1.Cl (stereo not shown) [Compound 11, methyl-2-amino-3-(3,4-phenyl-di-[4-aminobutanoate])propanoate-trihydrochloride]

melting point: 87 °C
hygroscopicity [1]: hygroscopic
Molecule: COC(=O)C(Cc1ccc(OC(=O)CCCN)c(OC(=O)CCCN)c1)NC(=O)CCCN.Cl (stereo not shown) [Compound 13]

hygroscopicity [1]: hygroscopic
Molecule: CCCCOC(=O)C(Cc1ccc(OC(=O)CCCN)c(OC(=O)CCCN)c1)NC(=O)CCCN (stereo not shown) [Compound 18]

hygroscopicity [1]: hygroscopic
Molecule: COC(=O)C(Cc1ccc(O)c(O)c1)NC(=O)CCCN.Cl (stereo not shown) [Compound 8a, methyl-2-(4-aminobutanamide)-3-(3,4-dihydroxyphenyl)propanoate hydrochloride]

hygroscopicity [1]: hygroscopic
Molecule: CCCCOC(=O)C(N)Cc1ccc(O)c(O)c1.Cl (stereo not shown) [Compound 14, Butyl-2-amino-3-(3,4-dihydroxyphenyl)propanoate hydrochloride]

melting point: 74 to 75 °C
Molecule: CCCCOC(=O)C(Cc1ccc(OC(=O)CCCN)c(OC(=O)CCCN)c1)NC(=O)CCCN (stereo not shown) (as salt: hydrochloride) [Compound 18]
